Measured values published in PubChem BioAssay (NCI).
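Cultured in 96-well plates, cells were exposed to test compound for 48 hours across five concentrations. GI50 marks 50% less growth. TGI: total growth inhibition.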

Key:
Test in all cases: inhibition of tumour cell growth, NCI panel, 48 h
[1] = system: SK-MEL-2 melanoma
[2] = system: PC-3 prostate
[3] = system: UACC-62 melanoma
[4] = system: BT-549 breast
[5] = system: NCI-H460 lung
[6] = system: SNB-75 CNS
[7] = system: SF-539 CNS
[8] = system: 786-0 renal
[9] = system: NCI-H522 lung
[10] = system: OVCAR-3 ovarian
[11] = system: LOX IMVI melanoma
[12] = system: HS 578T breast
[13] = system: HCT-116 colon
[14] = system: SF-268 CNS
[15] = system: UO-31 renal
[16] = system: MCF7 breast
[17] = system: COLO 205 colon
[18] = system: MDA-MB-231 breast
[19] = system: SN12C renal
[20] = system: SR leukemia
[21] = system: HT29 colon
[22] = system: NCI/ADR-RES ovarian
[23] = system: NCI-H23 lung
[24] = system: RXF 393 renal
[25] = system: SNB-19 CNS
[26] = system: ACHN renal
[27] = system: EKVX NSCLC
[28] = system: HCT-15 colon
[29] = system: U251 CNS
[30] = system: A498 renal
[31] = system: HOP-62 NSCLC
[32] = system: A549 NSCLC
[33] = system: TK-10 renal
[34] = system: SK-MEL-28 melanoma
[35] = system: RPMI-8226 leukemia
[36] = system: MDA-MB-435
[37] = system: SK-MEL-5 melanoma
[38] = system: CAKI-1 renal
[39] = system: IGROV1 ovarian
[40] = system: DU-145 prostate
[41] = system: SF-295 CNS
[42] = system: K-562 leukemia
[43] = system: SW-620 colon
[44] = system: HL-60(TB) leukemia
[45] = system: MOLT-4 leukemia
[46] = system: KM12 colon
[47] = system: OVCAR-5 ovarian
[48] = system: NCI-H226 lung
[49] = system: OVCAR-8 ovarian

COc1ccc(/C=C/C(=O)c2ccc(Cl)cc2Cl)cc1
GI50 [1]: 24.4 µM
TGI [1]: 70.9 µM
GI50 [2]: 6.1 µM
TGI [2]: 21.9 µM
GI50 [3]: 15 µM
TGI [3]: 30.3 µM
GI50 [4]: 16.7 µM
TGI [4]: 36.8 µM
GI50 [5]: 19.2 µM
TGI [5]: 41.3 µM
GI50 [6]: 22.2 µM
TGI [6]: 44.1 µM
GI50 [7]: 18.9 µM
TGI [7]: 37.8 µM
GI50 [8]: 13.9 µM
TGI [8]: 30.7 µM
GI50 [9]: 30.1 µM
TGI [9]: > 100 µM
GI50 [10]: 18.9 µM
TGI [10]: 39 µM
GI50 [11]: 15.9 µM
TGI [11]: 32.1 µM
GI50 [12]: 26.2 µM
TGI [12]: 65.4 µM
GI50 [13]: 9.05 µM
TGI [13]: 24.5 µM
GI50 [14]: 19 µM
TGI [14]: 41.1 µM
GI50 [15]: 29.1 µM
TGI [15]: 94.5 µM
GI50 [16]: 9.75 µM
TGI [16]: 27.5 µM
GI50 [17]: 32 µM
TGI [17]: > 100 µM
GI50 [18]: 20.5 µM
TGI [18]: 46.7 µM
GI50 [19]: 20.4 µM
TGI [19]: 43.2 µM
GI50 [20]: 1.88 µM
TGI [20]: > 100 µM
GI50 [21]: 33.8 µM
TGI [21]: > 100 µM
GI50 [22]: 15.9 µM
TGI [22]: 41.5 µM
GI50 [23]: 18.8 µM
TGI [23]: 42.8 µM
GI50 [24]: 12.7 µM
TGI [24]: 29.9 µM
GI50 [25]: 21.5 µM
TGI [25]: 75.3 µM
GI50 [26]: 17.3 µM
TGI [26]: 33.8 µM
GI50 [27]: 20.1 µM
TGI [27]: 47.3 µM
GI50 [28]: 12.2 µM
TGI [28]: 37 µM
GI50 [29]: 13.2 µM
TGI [29]: 31.3 µM
GI50 [30]: 10.7 µM
TGI [30]: 24.2 µM
GI50 [31]: 20.3 µM
TGI [31]: 48.8 µM
GI50 [32]: 21.4 µM
TGI [32]: 53.6 µM
GI50 [33]: 18.9 µM
TGI [33]: 37.4 µM
GI50 [34]: 34 µM
TGI [34]: 73.1 µM
GI50 [35]: 3.03 µM
TGI [35]: 6.31 µM
GI50 [36]: 11.9 µM
TGI [36]: 44.5 µM
GI50 [37]: 17.9 µM
TGI [37]: 39 µM
GI50 [38]: 23.7 µM
TGI [38]: 50.1 µM
GI50 [39]: 20.5 µM
TGI [39]: 59 µM
GI50 [40]: 16 µM
TGI [40]: 33.1 µM
GI50 [41]: 20.4 µM
TGI [41]: 53.4 µM
GI50 [42]: 3.37 µM
TGI [42]: > 100 µM
GI50 [43]: 9.36 µM
TGI [43]: > 100 µM
GI50 [44]: 9.98 µM
TGI [44]: 38.1 µM
GI50 [45]: 3.53 µM
TGI [45]: > 100 µM
GI50 [46]: 13.8 µM
TGI [46]: 40.5 µM
GI50 [47]: 25.5 µM
TGI [47]: 78.5 µM
GI50 [48]: 20.4 µM
TGI [48]: 46.6 µM
GI50 [49]: 21.3 µM
TGI [49]: 55.9 µM
